Reference: ChEMBL document CHEMBL1201862, “PubChem BioAssay data set” (2004)
Each block holds one compound with its values, some of them ahead of it. Calls of active or inactive are those of the source.

Assays:
J774.A1 = assay: Confirmation of image-based Screening Assay for Inhibitors of Phagocytosis. [Related pubchem assays (depositor defined):AID1029, AID1643]; type: functional, cell-based; details: Mus musculus
[1] = cytotoxicity in HEK-293T cells, dose response, cytotoxicity control for TCR NF-kB inhibitor project, luminescence, T-cell screen hits (AID 489026); type: functional, cell-based;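 further: cells exposed to compound about 14 hours before the viability readout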
SUMO E1/E2 = SUMO E1/E2 (Homo sapiens, UniProt P63279+Q9UBE0+Q9UBT2); assay: SAR analysis of SUMOylation using HTRF in an in-Vitro dose response assay. [Related pubchem assays (depositor defined):AID2006, AID2011, AID2018, AID2069, AID2658]; type: functional
[2] = target: T1, Voltage-gated N-type calcium channel alpha-1B subunit/Amyloid beta A4 precursor protein-binding family A member 1 (Homo sapiens, UniProt Q00975+Q02410); assay: disruptors of Mint-PDZ/N-type channel peptide interaction – biochemical, HTRF, set 2, SAR follow-up (AID 434980); type: functional
[3] = target: T1, Voltage-gated N-type calcium channel alpha-1B subunit/Amyloid beta A4 precursor protein-binding family A member 1; assay: disruptors of Mint-PDZ/N-type channel peptide interaction – biochemical, HTRF, SAR follow-up (AID 2489); type: functional
[4] = target: T2, Short transient receptor potential channel 4 (Mus musculus, UniProt Q9QUQ5); assay: mouse TRPC4 channel inhibitors, dose response, cell-based, HEK293 TRPC4/mu-opioid, Fluo-4 calcium (AID 434942); type: functional;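 further: potency of inhibitors blocking the TRPC4 calcium response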
T2 sequence (Q9QUQ5 whole entry): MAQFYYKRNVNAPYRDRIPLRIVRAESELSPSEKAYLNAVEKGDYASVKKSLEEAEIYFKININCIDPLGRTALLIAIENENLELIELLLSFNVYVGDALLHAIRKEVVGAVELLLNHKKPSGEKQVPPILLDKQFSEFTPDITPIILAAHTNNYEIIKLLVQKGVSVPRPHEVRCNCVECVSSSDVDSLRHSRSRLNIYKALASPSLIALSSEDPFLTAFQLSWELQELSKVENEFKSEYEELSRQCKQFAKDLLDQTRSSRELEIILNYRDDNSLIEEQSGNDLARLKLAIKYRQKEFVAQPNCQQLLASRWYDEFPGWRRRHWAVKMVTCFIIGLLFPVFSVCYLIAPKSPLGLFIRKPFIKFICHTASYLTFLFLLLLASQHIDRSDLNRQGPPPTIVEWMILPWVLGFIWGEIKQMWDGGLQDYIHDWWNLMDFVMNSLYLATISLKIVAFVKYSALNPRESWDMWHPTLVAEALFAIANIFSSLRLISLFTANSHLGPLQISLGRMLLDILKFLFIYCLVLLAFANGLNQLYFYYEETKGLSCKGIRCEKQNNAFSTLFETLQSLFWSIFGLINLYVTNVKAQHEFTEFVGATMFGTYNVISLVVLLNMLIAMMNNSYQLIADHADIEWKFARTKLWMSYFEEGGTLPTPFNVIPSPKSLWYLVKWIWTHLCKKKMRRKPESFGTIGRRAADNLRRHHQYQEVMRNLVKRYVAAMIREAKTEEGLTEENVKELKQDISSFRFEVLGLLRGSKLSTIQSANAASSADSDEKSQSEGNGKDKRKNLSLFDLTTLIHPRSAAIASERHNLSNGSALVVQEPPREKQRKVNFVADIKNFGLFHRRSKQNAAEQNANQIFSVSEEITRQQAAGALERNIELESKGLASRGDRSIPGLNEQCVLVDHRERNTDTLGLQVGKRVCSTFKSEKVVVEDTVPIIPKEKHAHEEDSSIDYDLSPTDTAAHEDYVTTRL

[5] = target: DNA repair protein RAD52 homolog (Homo sapiens, UniProt P43351); type: functional, biochemical
[6] = target: T3, RNA-editing ligase 1, mitochondrial (Trypanosoma brucei brucei, UniProt P86926); assay: TbREL1 ligase inhibitors, dose response, biochemical, fluorescence, Trypanosoma brucei (AID 1117295); type: functional
T3 sequence (P86926 whole entry): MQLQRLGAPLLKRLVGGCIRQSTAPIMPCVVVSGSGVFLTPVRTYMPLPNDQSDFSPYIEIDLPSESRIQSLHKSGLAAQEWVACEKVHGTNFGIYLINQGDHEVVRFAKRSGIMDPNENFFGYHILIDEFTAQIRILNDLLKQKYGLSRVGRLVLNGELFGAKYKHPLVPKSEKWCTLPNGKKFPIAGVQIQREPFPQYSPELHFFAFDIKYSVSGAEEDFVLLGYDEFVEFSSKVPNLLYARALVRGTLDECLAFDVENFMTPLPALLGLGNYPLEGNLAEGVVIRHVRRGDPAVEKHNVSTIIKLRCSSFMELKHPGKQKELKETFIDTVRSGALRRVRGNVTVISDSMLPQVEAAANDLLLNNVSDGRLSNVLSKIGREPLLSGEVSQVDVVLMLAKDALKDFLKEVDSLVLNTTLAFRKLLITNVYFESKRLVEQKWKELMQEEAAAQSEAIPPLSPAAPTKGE

Neutrophil collagenase = Neutrophil collagenase (Homo sapiens, UniProt P22894); assay: MMP13 inhibition and MMP selectivity, late-stage follow-up, selectivity assay for MMP13 inhibitor project, biochemical, probe development, late stage results, panel member MMP-8 [IC50 Assay] (AID 2067)
Chain of Neutrophil collagenase (P22894 whole entry): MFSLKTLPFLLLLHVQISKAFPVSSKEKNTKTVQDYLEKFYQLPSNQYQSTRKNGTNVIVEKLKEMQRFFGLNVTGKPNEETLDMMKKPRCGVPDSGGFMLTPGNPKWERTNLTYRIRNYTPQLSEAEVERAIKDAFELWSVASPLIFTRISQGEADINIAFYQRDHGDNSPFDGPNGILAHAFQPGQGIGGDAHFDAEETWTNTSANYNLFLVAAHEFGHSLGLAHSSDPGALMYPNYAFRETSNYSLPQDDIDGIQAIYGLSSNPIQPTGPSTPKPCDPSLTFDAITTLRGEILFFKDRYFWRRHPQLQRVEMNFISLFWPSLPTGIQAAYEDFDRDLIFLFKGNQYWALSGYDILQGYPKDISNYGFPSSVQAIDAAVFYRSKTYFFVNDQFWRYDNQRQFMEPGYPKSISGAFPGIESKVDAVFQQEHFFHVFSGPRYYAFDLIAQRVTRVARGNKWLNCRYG

T1 sequence (Q00975 whole entry): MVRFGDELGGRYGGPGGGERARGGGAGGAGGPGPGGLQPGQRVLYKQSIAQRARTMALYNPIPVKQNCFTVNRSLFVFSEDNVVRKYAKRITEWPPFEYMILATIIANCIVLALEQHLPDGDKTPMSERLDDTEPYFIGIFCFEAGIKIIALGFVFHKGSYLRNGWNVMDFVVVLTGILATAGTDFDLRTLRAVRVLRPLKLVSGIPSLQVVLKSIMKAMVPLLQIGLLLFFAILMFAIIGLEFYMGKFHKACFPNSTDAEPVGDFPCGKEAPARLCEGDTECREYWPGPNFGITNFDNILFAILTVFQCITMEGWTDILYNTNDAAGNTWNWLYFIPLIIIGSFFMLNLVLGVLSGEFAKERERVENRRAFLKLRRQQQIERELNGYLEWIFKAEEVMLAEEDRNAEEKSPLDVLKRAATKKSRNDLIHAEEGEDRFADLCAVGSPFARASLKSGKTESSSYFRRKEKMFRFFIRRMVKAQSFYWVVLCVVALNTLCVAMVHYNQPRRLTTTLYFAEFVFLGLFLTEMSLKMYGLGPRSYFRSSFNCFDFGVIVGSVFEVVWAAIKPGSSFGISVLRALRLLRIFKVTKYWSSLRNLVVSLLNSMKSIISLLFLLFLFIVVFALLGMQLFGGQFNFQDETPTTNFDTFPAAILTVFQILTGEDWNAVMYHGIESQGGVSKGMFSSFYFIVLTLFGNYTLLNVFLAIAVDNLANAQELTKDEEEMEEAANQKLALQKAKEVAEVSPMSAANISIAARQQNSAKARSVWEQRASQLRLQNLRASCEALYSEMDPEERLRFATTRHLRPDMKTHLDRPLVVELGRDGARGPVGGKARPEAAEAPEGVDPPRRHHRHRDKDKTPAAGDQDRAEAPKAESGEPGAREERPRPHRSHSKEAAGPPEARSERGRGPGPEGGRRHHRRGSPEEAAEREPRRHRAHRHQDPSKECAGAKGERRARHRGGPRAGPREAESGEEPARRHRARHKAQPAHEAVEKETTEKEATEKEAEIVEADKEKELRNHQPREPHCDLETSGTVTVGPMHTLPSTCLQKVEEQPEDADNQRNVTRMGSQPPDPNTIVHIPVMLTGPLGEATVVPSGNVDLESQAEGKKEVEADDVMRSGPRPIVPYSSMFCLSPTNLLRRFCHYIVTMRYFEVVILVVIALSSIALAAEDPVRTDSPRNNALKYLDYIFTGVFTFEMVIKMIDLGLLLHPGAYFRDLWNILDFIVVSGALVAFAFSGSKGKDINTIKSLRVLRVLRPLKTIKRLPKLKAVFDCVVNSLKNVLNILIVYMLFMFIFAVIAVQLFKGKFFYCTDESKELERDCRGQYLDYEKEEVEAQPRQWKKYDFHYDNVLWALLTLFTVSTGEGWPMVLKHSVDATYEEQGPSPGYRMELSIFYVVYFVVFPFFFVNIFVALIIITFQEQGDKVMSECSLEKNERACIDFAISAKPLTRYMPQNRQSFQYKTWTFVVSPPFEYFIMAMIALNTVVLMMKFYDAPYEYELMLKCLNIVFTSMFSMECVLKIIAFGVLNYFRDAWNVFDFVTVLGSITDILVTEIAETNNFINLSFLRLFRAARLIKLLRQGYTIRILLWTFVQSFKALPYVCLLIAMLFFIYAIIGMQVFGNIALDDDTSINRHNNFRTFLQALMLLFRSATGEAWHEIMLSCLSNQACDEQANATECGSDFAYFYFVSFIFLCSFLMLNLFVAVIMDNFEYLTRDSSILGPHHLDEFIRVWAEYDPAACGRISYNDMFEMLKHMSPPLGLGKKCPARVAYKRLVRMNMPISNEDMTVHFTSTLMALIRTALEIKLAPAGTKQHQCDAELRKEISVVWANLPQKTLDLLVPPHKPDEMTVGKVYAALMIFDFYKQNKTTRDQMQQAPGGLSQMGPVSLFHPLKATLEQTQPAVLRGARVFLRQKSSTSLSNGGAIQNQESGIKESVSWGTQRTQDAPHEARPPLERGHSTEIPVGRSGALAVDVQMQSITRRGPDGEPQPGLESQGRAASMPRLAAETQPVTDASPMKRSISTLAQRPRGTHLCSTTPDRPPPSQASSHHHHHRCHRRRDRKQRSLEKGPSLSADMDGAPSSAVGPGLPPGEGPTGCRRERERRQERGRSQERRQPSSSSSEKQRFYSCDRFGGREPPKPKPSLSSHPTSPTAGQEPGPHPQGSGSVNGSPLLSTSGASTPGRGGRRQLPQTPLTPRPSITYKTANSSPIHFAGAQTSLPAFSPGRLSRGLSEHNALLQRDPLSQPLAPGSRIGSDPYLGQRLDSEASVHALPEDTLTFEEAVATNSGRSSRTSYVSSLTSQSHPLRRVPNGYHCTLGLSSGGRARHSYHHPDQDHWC
T1 sequence (Q02410 whole entry): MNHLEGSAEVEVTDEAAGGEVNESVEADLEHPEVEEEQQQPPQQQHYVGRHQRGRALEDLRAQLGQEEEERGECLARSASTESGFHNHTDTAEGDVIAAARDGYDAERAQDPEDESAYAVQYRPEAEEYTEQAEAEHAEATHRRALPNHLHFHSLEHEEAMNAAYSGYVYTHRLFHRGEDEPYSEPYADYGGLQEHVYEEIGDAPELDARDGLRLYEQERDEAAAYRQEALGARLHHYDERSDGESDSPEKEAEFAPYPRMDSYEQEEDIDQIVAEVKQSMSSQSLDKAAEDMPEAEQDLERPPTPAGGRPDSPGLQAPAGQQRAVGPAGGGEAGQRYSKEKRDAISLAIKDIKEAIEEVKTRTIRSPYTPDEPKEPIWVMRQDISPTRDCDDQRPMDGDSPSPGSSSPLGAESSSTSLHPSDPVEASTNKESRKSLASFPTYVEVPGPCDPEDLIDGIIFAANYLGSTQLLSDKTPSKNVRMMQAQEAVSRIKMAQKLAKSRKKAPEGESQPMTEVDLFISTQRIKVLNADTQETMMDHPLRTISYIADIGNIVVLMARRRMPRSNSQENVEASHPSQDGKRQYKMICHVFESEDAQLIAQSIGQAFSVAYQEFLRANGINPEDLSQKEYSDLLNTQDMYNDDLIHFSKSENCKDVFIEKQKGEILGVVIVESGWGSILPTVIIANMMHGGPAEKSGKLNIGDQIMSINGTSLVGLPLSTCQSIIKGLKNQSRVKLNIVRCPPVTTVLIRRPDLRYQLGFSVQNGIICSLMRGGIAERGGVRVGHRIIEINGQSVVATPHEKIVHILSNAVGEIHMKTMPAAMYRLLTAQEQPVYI
Chain of DNA repair protein RAD52 homolog (P43351 whole entry): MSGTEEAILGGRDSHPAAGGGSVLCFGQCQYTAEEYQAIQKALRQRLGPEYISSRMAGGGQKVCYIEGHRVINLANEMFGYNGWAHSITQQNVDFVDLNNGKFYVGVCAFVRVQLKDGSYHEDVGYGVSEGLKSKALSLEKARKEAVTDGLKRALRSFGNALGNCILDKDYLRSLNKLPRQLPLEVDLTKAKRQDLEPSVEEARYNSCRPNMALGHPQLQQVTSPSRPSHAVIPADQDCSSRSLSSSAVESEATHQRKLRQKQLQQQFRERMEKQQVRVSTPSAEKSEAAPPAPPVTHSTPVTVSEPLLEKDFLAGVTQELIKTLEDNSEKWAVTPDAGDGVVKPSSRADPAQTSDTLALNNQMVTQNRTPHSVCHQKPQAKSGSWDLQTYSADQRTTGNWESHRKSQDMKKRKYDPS

Structure (SMILES): Cc1cccc(N2CCN(C(=O)c3ccc(CS(=O)(=O)c4ccccc4C)o3)CC2C)c1 (centres undefined)
IC50 (J774.A1): 0.421 µM (active)
IC50 [1]: 19.5 µM (active)

IC50 (SUMO E1/E2): 4 µM (active)
IC50 [2]: > 56.8 µM (inactive)
IC50 [3]: > 56.8 µM (inactive)
Structure (SMILES): COc1ccc(CNC(=O)COC(=O)c2cc(-c3ccc(C)o3)nc3ccccc23)cc1

EC50 [4]: 0.299 µM (active)
AC50 [5]: 10.2 µM (active)
IC50 [6]: > 96.6 µM (inactive)
Structure (SMILES): CCCCCC[N+](C)(C)CC/C=C1/c2ccccc2Sc2ccc(Cl)cc21

IC50 (Neutrophil collagenase): > 39.8 µM (inactive)
Structure (SMILES): O=c1[nH]c(SCCc2ccccc2)nc2c1CCC2
